We go through 43 molecules from patent US7256199B1, “Pyrimidone derivatives” (Mitsubishi Chemical Corporation, priority 1998, dated 2007).

The test concerns the target T1, bovine cerebral TPK1 (Bos taurus, UniProt A0A3Q1MT31).
T1 construct: Against P-GS1 Phosphorylation by Bovine Cerebral TPK1; from tissue; host or cells: bovine cerebrum (brain)
Description: Inhibitory activity against P-GS1 phosphorylation by bovine cerebral TPK1. The class given is biochemical. To be noted: 41.7 μM [γ-32P] ATP, 25° C., 2 hours, pH 6.5. On the procedure:
Test Example: Inhibitory Activity of the Medicament of the Present Invention Against P-GS1 Phosphorylation by Bovine Cerebral TPK1
A mixture containing 100 mM MES-sodium hydroxide (pH 6.5), 1 mM magnesium acetate, 0.5 mM EGTA, 5 mM β-mercaptoethanol, 0.02% Tween 20, 10% glycerol, 12 μg/ml P-GS1, 41.7 μM [γ-^32P] ATP (68 kBq/ml), bovine cerebral TPK1 and a compound shown in Table (a final mixture contained 1.7% DMSO deriving from a solution of a test compound prepared in the presence of 10% DMSO) was used as a reaction system. The phosphorylation was started by adding ATP, and the reaction was conducted at 25° C. for 2 hours, and then stopped by adding 21% perchloric acid on ice cooling. The reaction mixture was centrifuged at 12,000 rpm for 5 minutes and adsorbed on P81 paper (Whatmann), and then the paper was washed four times with 75 mM phosphoric acid, three times with water and once with acetone. The paper was dried, and the residual radioactivity was measured using a liquid scintillation counter.

Counter-ions that a name gives are not always drawn.

T1 sequence (A0A3Q1MT31 1-419): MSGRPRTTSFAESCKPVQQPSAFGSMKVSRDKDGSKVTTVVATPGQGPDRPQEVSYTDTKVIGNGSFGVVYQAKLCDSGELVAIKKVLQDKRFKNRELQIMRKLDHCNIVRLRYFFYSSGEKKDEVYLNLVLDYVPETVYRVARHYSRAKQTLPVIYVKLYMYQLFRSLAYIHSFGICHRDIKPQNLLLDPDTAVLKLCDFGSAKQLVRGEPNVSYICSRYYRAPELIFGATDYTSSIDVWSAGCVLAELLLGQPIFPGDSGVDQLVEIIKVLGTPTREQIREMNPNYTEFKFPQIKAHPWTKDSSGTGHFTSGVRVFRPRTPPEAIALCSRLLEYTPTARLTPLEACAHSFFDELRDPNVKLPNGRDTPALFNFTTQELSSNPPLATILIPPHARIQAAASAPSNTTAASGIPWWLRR

Regarding “2-(bromophenylamino)-6-(4-pyridyl)pyrimidin-4-one [Example 91]”, the midpoint of inhibition, the IC50, lay at 1600 nM. With “2-(butoxyphenylamino)-6-(4-pyridyl)pyrimidin-4-one [Example 90]”, it took 6300 nM to reach half-maximal inhibition (IC50).

The molecule “2-(ethylphenylamino)-6-(4-pyridyl)pyrimidin-4-one [Example 89]” showed an IC50 of 2300 nM. For `O=c1cc(-c2ccncc2)nc(-c2cccnc2)[nH]1` [Example 1, 2-(3-pyridyl)-6-(4-pyridyl)pyrimidin-4-one] the value was 2300 nM; for `Cc1nc(-c2ccncc2)cc(=O)[nH]1` [Example 2, 2-methyl-6-(4-pyridyl)pyrimidin-4-one], 3000 nM. The molecule `CC(C)c1nc(-c2ccncc2)cc(=O)[nH]1` [Example 5, 2-isopropyl-6-(4-pyridyl)pyrimidin-4-one] showed an IC50 of 2100 nM. For `CCCCc1nc(-c2ccncc2)cc(=O)[nH]1` [Example 6, 2-butyl-6-(4-pyridyl)pyrimidin-4-one] the value was 1300 nM.

`CC(C)Cc1nc(-c2ccncc2)cc(=O)[nH]1` [Example 7, 2-isobutyl-6-(4-pyridyl)pyrimidin-4-one] returned an IC50 of 2400 nM. As for `O=c1cc(-c2ccncc2)nc(-c2ccccc2)[nH]1` [Example 12, 2-phenyl-6-(4-pyridyl)pyrimidin-4-one], the figure is 1800 nM; as for `Cc1ccccc1-c1nc(-c2ccncc2)cc(=O)[nH]1` [Example 14, 6-(4-pyridyl)-2-(2-tolyl)pyrimidin-4-one], 4000 nM. Molecule `Cc1cccc(-c2nc(-c3ccncc3)cc(=O)[nH]2)c1` [Example 15, 6-(4-pyridyl)-2-(3-tolyl)pyrimidin-4-one] showed an IC50 of 2200 nM. As for `Cc1ccc(-c2nc(-c3ccncc3)cc(=O)[nH]2)cc1` [Example 16, 6-(4-pyridyl)-2-(4-tolyl)pyrimidin-4-one], the figure is 4800 nM; as for `O=c1cc(-c2ccncc2)nc(-c2cccc(Br)c2)[nH]1` [Example 19, 2-(3-bromophenyl)-6-(4-pyridyl)pyrimidin-4-one], 8700 nM. For `N#Cc1cccc(-c2nc(-c3ccncc3)cc(=O)[nH]2)c1` [Example 22, 2-(3-cyanophenyl)-6-(4-pyridyl)pyrimidin-4-one] the value was 6200 nM; for `O=c1cc(-c2ccncc2)nc(-c2ccc([N+](=O)[O-])cc2)[nH]1` [Example 24, 2-(4-nitrophenyl)-6-(4-pyridyl)pyrimidin-4-one], 5300 nM; for `CN(C)Cc1cccc(-c2nc(-c3ccncc3)cc(=O)[nH]2)c1` [Example 27, 2-(3-(dimethylaminomethyl)phenyl)-6-(4-pyridyl)pyrimidin-4-one dihydrochloride], 3300 nM. As for `O=c1cc(-c2ccncc2)nc(Cc2ccccc2)[nH]1` [Example 28, 2-benzyl-6-(4-pyridyl)pyrimidin-4-one], the figure is 1300 nM. `Cc1ccccc1Cc1nc(-c2ccncc2)cc(=O)[nH]1` [Example 29, 2-(2-methylbenzyl)-6-(4-pyridyl)pyrimidin-4-one] registered an IC50 of 1400 nM. As for `Cc1ccc(Cc2nc(-c3ccncc3)cc(=O)[nH]2)cc1` [Example 31, 2-(4-methylbenzyl)-6-(4-pyridyl)pyrimidin-4-one], the figure is 2900 nM; as for `O=c1cc(-c2ccncc2)nc(Cc2ccc(Cl)cc2)[nH]1` [Example 33, 2-(4-chlorobenzyl)-6-(4-pyridyl)pyrimidin-4-one], 5500 nM. For `O=c1cc(-c2ccncc2)nc(CCc2ccccc2)[nH]1` [Example 35, 2-(2-phenylethyl)-6-(4-pyridyl)pyrimidin-4-one] the value was 8900 nM.

`O=c1cc(-c2ccncc2)nc(CCCc2ccccc2)[nH]1` [Example 36, 2-(3-phenylpropyl)-6-(4-pyridyl)pyrimidin-4-one] yielded an IC50 of 500 nM. As for `O=c1cc(-c2ccncc2)nc(-c2ccccn2)[nH]1` [Example 37, 2-(2-pyridyl)-6-(4-pyridyl)pyrimidin-4-one], the figure is 3800 nM; as for `O=c1cc(-c2ccncc2)nc(-c2ccncc2)[nH]1` [Example 38, 2,6-di(4-pyridyl)pyrimidin-4-one], 1800 nM; as for `O=c1cc(-c2ccncc2)nc(Cc2cccs2)[nH]1` [Example 42, 6-(4-pyridyl)-2-(2-thienylmethyl)pyrimidin-4-one], 7600 nM. For `Nc1nc(-c2ccncc2)cc(=O)[nH]1` [Example 43, 2-amino-6-(4-pyridyl)pyrimidin-4-one] the value was 5700 nM. As for `CN(C)c1nc(-c2ccncc2)cc(=O)[nH]1` [Example 44, 2-dimethylamino-6-(4-pyridyl)pyrimidin-4-one], the figure is 3700 nM.

Turning to `O=c1cc(-c2ccncc2)nc(Cc2ccccc2Cl)[nH]1` [Example 68, 2-(2-chlorobenzyl)-6-(4-pyridyl)pyrimidin-4-one], the IC50 was 1300 nM. For the molecule `O=c1cc(-c2ccncc2)nc(N2CCCCC2)[nH]1` [Example 69, 2-(1-piperidino)-6-(4-pyridyl)pyrimidin-4-one], half-maximal inhibition (IC50) was put at 2500 nM. `CCN(CC)c1nc(-c2ccncc2)cc(=O)[nH]1` [Example 71, 2-(diethylamino)-6-(4-pyridyl)pyrimidin-4-one] registered an IC50 of 1100 nM. As for `CN(Cc1ccccc1)c1nc(-c2ccncc2)cc(=O)[nH]1` [Example 79, 2-(N-benzyl-N-methylamino)-6-(4-pyridyl)pyrimidin-4-one], the figure is 2800 nM; as for `O=c1cc(-c2ccncc2)nc(NCc2ccccc2)[nH]1` [Example 80, 2-benzylamino-6-(4-pyridyl)pyrimidin-4-one], 1100 nM. For `O=c1cc(-c2ccncc2)nc(N2CCOCC2)[nH]1` [Example 82, 2-(4-morpholinyl)-6-(4-pyridyl)pyrimidin-4-one] the value was 4300 nM; for `O=c1cc(-c2ccncc2)nc(C2CCCCC2)[nH]1` [Example 83, 2-cyclohexyl-6-(4-pyridyl)pyrimidin-4-one], 2800 nM. In turn, `CC(C)CN(C)c1nc(-c2ccncc2)cc(=O)[nH]1` [Example 84, 2-(N-isobutyl-N-methylamino)-6-(4-pyridyl)pyrimidin-4-one] displayed an IC50 of 1100 nM. For `CCCN(CCC)c1nc(-c2ccncc2)cc(=O)[nH]1` [Example 85, 2-dipropylamino-6-(4-pyridyl)pyrimidin-4-one] the value was 960 nM. As for `O=c1cc(-c2ccncc2)nc(NCCCO)[nH]1` [Example 86, 2-(3-hydroxypropylamino)-6-(4-pyridyl)pyrimidin-4-one], the figure is 10000 nM.

Turning to `O=c1cc(-c2ccncc2)nc(N2CCCC2)[nH]1` [Example 87, 2-(1-pyrrolidinyl)-6-(4-pyridyl)pyrimidin-4-one], the IC50 stood at 2600 nM. As for `O=c1cc(-c2ccncc2)nc(NCC2CCCCC2)[nH]1` [Example 88, 2-cyclohexylmethylamino-6-(4-pyridyl)pyrimidin-4-one], the figure is 1400 nM; as for `O=c1cc(-c2ccncc2)nc(Nc2ccccc2)[nH]1` [Example 92, 2-phenylamino-6-(4-pyridyl)pyrimidin-4-one], 1600 nM. For `COc1cccc(Nc2nc(-c3ccncc3)cc(=O)[nH]2)c1` [Example 93, 2-(3-methoxyphenylamino)-6-(4-pyridyl)pyrimidin-4-one] the value was 1800 nM; for `O=c1cc(-c2ccncc2)nc(Cc2cccc(-c3ccccc3)c2)[nH]1` [Example 96, 2-(3-phenylbenzyl)-6-(4-pyridyl)pyrimidin-4-one], 770 nM. For `O=c1cc(-c2ccncc2)nc(-c2ccc(O)cc2)[nH]1` [Example 97, 2-(4-hydroxyphenyl)-6-(4-pyridyl)pyrimidin-4-one] the value was 1700 nM.
